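How tested: cells in 96-well plates exposed to compound for 48 hours at five concentrations. GI50 = concentration required for 50% inhibition of growth.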 Activity calls are given as the source filed them. Cut-off read from the data, not from the text of the source: active = GI50 up to about 1.1 µM and inactive = higher.
Assays:
Assay in all cases: growth of human tumour cells (NCI), 48 h
NCI/ADR-RES = system: NCI/ADR-RES
786-0 = system: 786-0
DU-145 = system: DU-145
SW-620 = system: SW-620
HOP-62 = system: HOP-62
HCT-15 = system: HCT-15
RXF 393 = system: RXF 393
SK-MEL-28 = system: SK-MEL-28
SF-295 = system: SF-295
OVCAR-4 = system: OVCAR-4
U-251 = system: U-251
SF-268 = system: SF-268
SR = system: SR
NCI-H522 = system: NCI-H522
TK-10 = system: TK-10
SNB-75 = system: SNB-75
T47D = system: T47D
PC-3 = system: PC-3
MDA-MB-231 = system: MDA-MB-231
MDA-MB-435 = system: MDA-MB-435
K562 = system: K562
BT-549 = system: BT-549
HCT-116 = system: HCT-116
UACC-62 = system: UACC-62
COLO 205 = system: COLO 205
SNB-19 = system: SNB-19
A549 = system: A549
A498 = system: A498
SK-OV-3 = system: SK-OV-3
UACC-257 = system: UACC-257
HT-29 = system: HT-29
NCI-H226 = system: NCI-H226
MOLT-4 = system: MOLT-4
LOX IMVI = system: LOX IMVI
SF-539 = system: SF-539
NCI-H460 = system: NCI-H460
HCC 2998 = system: HCC 2998
OVCAR-8 = system: OVCAR-8
CAKI-1 = system: CAKI-1
IGROV-1 = system: IGROV-1
NCI-H23 = system: NCI-H23
RPMI-8226 = system: RPMI-8226
SK-MEL-2 = system: SK-MEL-2
EKVX = system: EKVX
UO-31 = system: UO-31
Malme-3M = system: Malme-3M
MCF7 = system: MCF7
M14 = system: M14
MDA-N = system: MDA-N
SN12C = system: SN12C
SK-MEL-5 = system: SK-MEL-5
KM12 = system: KM12
OVCAR-5 = system: OVCAR-5
ACHN = system: ACHN
CCRF-CEM = system: CCRF-CEM
OVCAR-3 = system: OVCAR-3
HOP-92 = system: HOP-92
Hs-578T = system: Hs-578T

Structure (SMILES): C[C@@H]1CC[C@@H]2[C@@H](C1)O[C@@H]([C@H](C)OCc1ccccc1)SC2(C)C
- GI50 (NCI/ADR-RES): 25.5 µM (inactive)
- GI50 (786-0): 21.2 µM (inactive)
- GI50 (DU-145): 37.3 µM (inactive)
- GI50 (SW-620): 18.9 µM (inactive)
- GI50 (HOP-62): 34.4 µM (inactive)
- GI50 (HCT-15): 27.8 µM
- GI50 (RXF 393): 17.6 µM (inactive)
- GI50 (SK-MEL-28): 32.1 µM (inactive)
- GI50 (SF-295): 17.5 µM (inactive)
- GI50 (OVCAR-4): 28.3 µM (inactive)
- GI50 (U-251): 17.9 µM (inactive)
- GI50 (SF-268): 32.3 µM (inactive)
- GI50 (SR): 18.2 µM (inactive)
- GI50 (NCI-H522): 19.7 µM (inactive)
- GI50 (TK-10): 32.1 µM (inactive)
- GI50 (SNB-75): 16.4 µM (inactive)
- GI50 (T47D): 15.7 µM (inactive)
- GI50 (PC-3): 31.5 µM (inactive)
- GI50 (MDA-MB-231): 19.7 µM (inactive)
- GI50 (MDA-MB-435): 30.3 µM (inactive)
- GI50 (K562): 19.6 µM (inactive)
- GI50 (BT-549): 39.4 µM (inactive)
- GI50 (HCT-116): 14.7 µM (inactive)
- GI50 (UACC-62): 36.4 µM (inactive)
- GI50 (COLO 205): 19.3 µM (inactive)
- GI50 (SNB-19): 21.3 µM (inactive)
- GI50 (A549): 26.3 µM (inactive)
- GI50 (A498): 19.7 µM (inactive)
- GI50 (SK-OV-3): 30.5 µM (inactive)
- GI50 (UACC-257): 25.5 µM (inactive)
- GI50 (HT-29): 36 µM (inactive)
- GI50 (NCI-H226): 18.4 µM (inactive)
- GI50 (MOLT-4): 18.4 µM (inactive)
- GI50 (LOX IMVI): 18.4 µM (inactive)
- GI50 (SF-539): 29.2 µM (inactive)
- GI50 (NCI-H460): 20.7 µM (inactive)
- GI50 (HCC 2998): 17.9 µM (inactive)
- GI50 (OVCAR-8): 31.5 µM (inactive)
- GI50 (CAKI-1): 34.8 µM (inactive)
- GI50 (IGROV-1): 41.8 µM (inactive)
- GI50 (NCI-H23): 31.8 µM (inactive)
- GI50 (RPMI-8226): 17.4 µM (inactive)
- GI50 (SK-MEL-2): 17.5 µM (inactive)
- GI50 (EKVX): 45 µM (inactive)
- GI50 (UO-31): 14.5 µM (inactive)
- GI50 (Malme-3M): 22.6 µM (inactive)
- GI50 (MCF7): 16.9 µM (inactive)
- GI50 (M14): 16.8 µM (inactive)
- GI50 (MDA-N): 23.7 µM (inactive)
- GI50 (SN12C): 18.7 µM (inactive)
- GI50 (SK-MEL-5): 18.1 µM (inactive)
- GI50 (KM12): 18.5 µM (inactive)
- GI50 (OVCAR-5): 16.3 µM (inactive)
- GI50 (ACHN): 18.8 µM (inactive)

Structure (SMILES): COc1cc(/C=C/c2ccc(OC)c(OC)c2)cc(OC)c1 [(E)-3,4,3',5'-TETRAMETHOXYSTILBENE]
- GI50 (NCI/ADR-RES): 20.9 µM (inactive)
- GI50 (786-0): 20.7 µM (inactive)
- GI50 (DU-145): 45.2 µM (inactive)
- GI50 (SW-620): 28.7 µM (inactive)
- GI50 (HOP-62): 63.7 µM (inactive)
- GI50 (HCT-15): 7.08 µM
- GI50 (RXF 393): 19.6 µM (inactive)
- GI50 (SK-MEL-28): 36.2 µM (inactive)
- GI50 (SF-295): 22.2 µM (inactive)
- GI50 (OVCAR-4): 53.2 µM (inactive)
- GI50 (U-251): 24.7 µM (inactive)
- GI50 (SF-268): 39.5 µM (inactive)
- GI50 (CCRF-CEM): 76.9 µM (inactive)
- GI50 (SR): 30.9 µM (inactive)
- GI50 (NCI-H522): 18.8 µM (inactive)
- GI50 (TK-10): 56.1 µM (inactive)
- GI50 (SNB-75): 34 µM (inactive)
- GI50 (T47D): 23.6 µM (inactive)
- GI50 (PC-3): 62.7 µM (inactive)
- GI50 (MDA-MB-231): 22.9 µM (inactive)
- GI50 (MDA-MB-435): 25.7 µM (inactive)
- GI50 (K562): 41.1 µM (inactive)
- GI50 (BT-549): 23.7 µM (inactive)
- GI50 (HCT-116): 23.1 µM (inactive)
- GI50 (UACC-62): 19.8 µM (inactive)
- GI50 (OVCAR-3): 23.7 µM (inactive)
- GI50 (COLO 205): 19.2 µM (inactive)
- GI50 (SNB-19): 84.9 µM (inactive)
- GI50 (A549): 37.8 µM (inactive)
- GI50 (SK-OV-3): 73.6 µM (inactive)
- GI50 (UACC-257): 46.3 µM (inactive)
- GI50 (HOP-92): > 100 µM (inactive)
- GI50 (HT-29): 19.3 µM (inactive)
- GI50 (NCI-H226): 30.2 µM (inactive)
- GI50 (MOLT-4): 46.6 µM (inactive)
- GI50 (LOX IMVI): 19.9 µM (inactive)
- GI50 (SF-539): 41.3 µM (inactive)
- GI50 (NCI-H460): 22.2 µM (inactive)
- GI50 (Hs-578T): 25.8 µM (inactive)
- GI50 (OVCAR-8): 39.6 µM (inactive)
- GI50 (CAKI-1): 32.9 µM (inactive)
- GI50 (IGROV-1): 46.9 µM (inactive)
- GI50 (NCI-H23): 22.9 µM (inactive)
- GI50 (RPMI-8226): 83.4 µM (inactive)
- GI50 (SK-MEL-2): 32 µM (inactive)
- GI50 (EKVX): 39.9 µM (inactive)
- GI50 (UO-31): 19.1 µM (inactive)
- GI50 (Malme-3M): 49.2 µM (inactive)
- GI50 (MCF7): 57 µM (inactive)
- GI50 (M14): 28.1 µM (inactive)
- GI50 (SN12C): 31.3 µM (inactive)
- GI50 (SK-MEL-5): 19 µM (inactive)
- GI50 (KM12): 15.5 µM (inactive)
- GI50 (OVCAR-5): 39.8 µM (inactive)
- GI50 (ACHN): 30.5 µM (inactive)

Reference: ChEMBL document CHEMBL1201862, “PubChem BioAssay data set” (2004)
